26 compounds from ChEMBL document CHEMBL4825671, “Design, synthesis and biological evaluation of novel FXIa inhibitors with 2-phenyl-1H-imidazole-5-carboxamide moiety as P1 fragment” (Eur J Med Chem, 2021) can be followed below.

Bounds are passed on as bounds.

Sequence of Coagulation factor XI (P03951 19-387 limits assumed): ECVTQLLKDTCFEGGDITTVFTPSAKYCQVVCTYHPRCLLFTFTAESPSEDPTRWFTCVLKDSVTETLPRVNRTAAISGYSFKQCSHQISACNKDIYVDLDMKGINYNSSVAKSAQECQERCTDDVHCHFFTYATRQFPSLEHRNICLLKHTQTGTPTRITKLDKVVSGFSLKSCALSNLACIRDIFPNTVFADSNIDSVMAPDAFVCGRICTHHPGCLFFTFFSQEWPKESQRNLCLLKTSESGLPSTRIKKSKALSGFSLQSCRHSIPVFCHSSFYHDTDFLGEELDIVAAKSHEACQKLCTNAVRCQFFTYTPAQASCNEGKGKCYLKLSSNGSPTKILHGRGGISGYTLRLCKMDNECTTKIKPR
Sequence of Coagulation factor XI (P03951 388-625 limits assumed): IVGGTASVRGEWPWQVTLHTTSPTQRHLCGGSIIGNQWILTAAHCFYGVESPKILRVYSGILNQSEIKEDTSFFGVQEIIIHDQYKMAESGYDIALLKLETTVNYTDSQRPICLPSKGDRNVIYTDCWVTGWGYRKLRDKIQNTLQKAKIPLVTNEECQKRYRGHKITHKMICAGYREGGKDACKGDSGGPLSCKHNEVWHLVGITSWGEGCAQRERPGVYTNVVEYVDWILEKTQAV

The assay addresses Coagulation factor XI (Homo sapiens, UniProt P03951). Nature of the assay: Binding affinity to coagulation factor 11a (unknown origin) assessed as inhibition constant using (p-Glu-Pro-Arg-pNa,HCl) as substrate preincubated for 5 mins followed by substrate addition and measured after 10 mins.
As usually defined, the Ki is a dissociation constant, usually derived from enzyme kinetics or from competition with a known ligand. Consider `Cc1nc(-c2cccc(C#N)c2)n(O)c1C(=O)O`, for which the Ki is 120000 nM. Take `Cc1nc(-c2ccccc2)n(O)c1C(=O)N[C@@H](Cc1ccccc1)C(=O)Nc1ccc(C(=O)O)cc1`: the Ki was more than 100000 nM. As to `Cc1nc(-c2cccc(Cl)c2F)n(O)c1C(=O)N[C@@H](Cc1ccc(NC(=O)CC(C)C)cc1)C(=O)Nc1ccc2[nH]c(C(=O)O)cc2c1`, the Ki amounted to 26 nM. Turning to `Cc1nc(-c2cccc(Cl)c2F)n(O)c1C(=O)N[C@@H](Cc1ccccc1)C(=O)Nc1ccc2[nH]c(C(=O)O)cc2c1`, the Ki was 2820 nM. For `C#CC(=O)Nc1ccc(C[C@H](NC(=O)c2c(C)nc(-c3cccc(Cl)c3F)n2O)C(=O)Nc2ccc3[nH]c(C(=O)O)cc3c2)cc1`, the Ki was found to be 53 nM.

In the case of `Cc1nc(-c2cccc(Cl)c2F)n(O)c1C(=O)N[C@@H](Cc1ccc(NC(=O)C2CCC2)cc1)C(=O)Nc1ccc2[nH]c(C(=O)O)cc2c1`, the Ki is 22.5 nM. Turning to `Cc1nc(-c2cccc(Cl)c2F)n(O)c1C(=O)N[C@@H](Cc1ccccc1)C(=O)Nc1ccc(CC(=O)O)cc1`, the inhibition constant Ki was determined as 6860 nM. Next, `Cc1nc(-c2cccc(Cl)c2F)[nH]c1C(=O)N[C@@H](Cc1ccccc1)C(=O)Nc1ccc(C(=O)O)cc1`: 26400 nM; `Cc1nc(-c2cccc(C#N)c2)n(O)c1C(=O)N[C@@H](Cc1ccccc1)C(=O)Nc1ccc(C(=O)O)cc1`: 23900 nM. On to `Cc1nc(-c2cccc(Cl)c2F)n(O)c1C(=O)N[C@@H](Cc1ccc(NC(=O)C(C)C)cc1)C(=O)Nc1ccc2[nH]c(C(=O)O)cc2c1`, for which the Ki worked out at 156 nM. The same measure for `Cc1nc(-c2cccc(Cl)c2F)n(O)c1C(=O)N[C@@H](Cc1ccc(NC(=O)c2ccccc2)cc1)C(=O)Nc1ccc2[nH]c(C(=O)O)cc2c1`: 366 nM. Next, `Cc1nc(-c2cccc(Cl)c2F)n(O)c1C(=O)N[C@@H](Cc1ccc([N+](=O)[O-])cc1)C(=O)Nc1ccc2[nH]c(C(=O)O)cc2c1`: 7320 nM.

For `Cc1nc(-c2cccc(Cl)c2F)n(O)c1C(=O)N[C@@H](Cc1ccc(NC(=O)C2CCCC2)cc1)C(=O)Nc1ccc2[nH]c(C(=O)O)cc2c1`, the Ki stood at 33.9 nM. The same measure for `CC#CC(=O)Nc1ccc(C[C@H](NC(=O)c2c(C)nc(-c3cccc(Cl)c3F)n2O)C(=O)Nc2ccc3[nH]c(C(=O)O)cc3c2)cc1`: 31 nM; for `COc1ccc(-c2nc(C)c(C(=O)O)n2O)cc1C#N`: 243000 nM; for `Cc1nc(-c2cccc(Cl)c2F)n(O)c1C(=O)N[C@@H](Cc1ccccc1)C(=O)Nc1ccc(C(=O)O)cc1`: 11800 nM. Next, `Cc1nc(-c2cccc(Cl)c2F)n(O)c1C(=O)N[C@@H](Cc1ccc(NC(=O)c2ccccn2)cc1)C(=O)Nc1ccc2[nH]c(C(=O)O)cc2c1`: 155 nM. With `Cc1nc(-c2cccc(Cl)c2F)n(O)c1C(=O)N[C@@H](Cc1ccc(Br)cc1)C(=O)Nc1ccc2[nH]c(C(=O)O)cc2c1`, the Ki is 962 nM. The same measure for `Cc1nc(-c2cccc(Cl)c2)n(O)c1C(=O)N[C@@H](Cc1ccccc1)C(=O)Nc1ccc(C(=O)O)cc1`: 14500 nM; for `Cc1nc(-c2ccc(O)c(C#N)c2)n(O)c1C(=O)O`: 228000 nM. Take `CC(=O)Nc1ccc(C[C@H](NC(=O)c2c(C)nc(-c3cccc(Cl)c3F)n2O)C(=O)Nc2ccc3[nH]c(C(=O)O)cc3c2)cc1`: the Ki amounted to 392 nM.

Consider `Cc1nc(-c2cccc(Cl)c2F)n(O)c1C(=O)N[C@@H](Cc1ccc(N)cc1)C(=O)Nc1ccc2[nH]c(C(=O)O)cc2c1`, for which the inhibitory constant (Ki) amounted to 3080 nM. For the compound `Cc1nc(-c2cccc(Cl)c2F)n(O)c1C(=O)N[C@@H](Cc1ccc(NC(=O)c2ncccn2)cc1)C(=O)Nc1ccc2[nH]c(C(=O)O)cc2c1`, the Ki stood at 81.3 nM. Next, `Cc1nc(-c2cccc(Cl)c2F)n(C)c1C(=O)N[C@@H](Cc1ccccc1)C(=O)Nc1ccc(C(=O)O)cc1`: 22400 nM; `Cc1nc(-c2cccc(Cl)c2F)n(O)c1C(=O)N[C@@H](Cc1ccc(NC(=O)C2CC2)cc1)C(=O)Nc1ccc2[nH]c(C(=O)O)cc2c1`: 259 nM. Consider `Cc1nc(-c2cccc(Cl)c2F)n(O)c1C(=O)N[C@@H](Cc1ccc(NC(=O)C2CCCCC2)cc1)C(=O)Nc1ccc2[nH]c(C(=O)O)cc2c1`, for which the Ki was 56.3 nM.
